# Assay results published in US9221838B2, “Inhibitors of AKT activity” (ALMAC DISCOVERY LIMITED, priority 2009, dated 2015).
# What was measured:
# Type in all cases: biochemical
# [1] = molecular target: T1, AKT1 (Homo sapiens, UniProt P31749); assay: AKT Kinase Assay (IMAP fluorescent polarisation) vs AKT1
# T1 construct: purchased SignalChem
# Experimental: (§1) Testing of the compounds was performed using an AKT Kinase Assay:
# (§2) Activated AKT isoforms 1, 2 and 3 were assayed utilising a 5′ FAM Crosstide (Seq. GRPRTSSFAEG-OH)(SEO ID NO: 1). The extent of kinase phosphorylation was determined by fluorescent polarisation using IMAP progressive binding reagent, which introduces binding beads which allow the reagent to specifically bind to phosphate residues via covalent co-ordination complex bonds.
# (§3) iMAP binding solution stops Crosstide/kinase interaction and specifically binds phosphorylated substrates. The degree of phosphorylation is determined by fluorescent polarisation (excitation 485 nm; emission 528 nm) or the reduction in speed of rotation of the excited substrate.
# (§4) The following materials were used in the assay: • a) Activated AKT isoforms (SignalChem.) dissolved in Complete Reaction buffer at a pre-determined concentration selected so that the assay was carried out in the linear range. • b) AKT substrate peptide: FAM Crosstide (R7110) Molecular Devices, diluted in complete reaction buffer. • c) iMAP Progressive Screening Express Kit (R8127) Molecular Devices • d) Complete Reaction Buffer containing 0.1% BSA, 10 mM Tris-HCl, 10 mM MgCl2, 0.05% NaN3 and 0.01% phosphate free BSA, 1 mM DTT • e) Progressive Binding Solution containing 75% Buffer A, 25% Buffer B and low volume Binding Reagent which contains the binding entity for the assay • f) ATP diluted in complete reaction buffer • g) Black polystyrene 384 well assay plates (Nunc). • h) Biotek Synergy 4 Hybrid Plate reader.
# (§5) 5 μl of test compound was dissolved in DMSO (Sigma Aldrich) and serially diluted in complete reaction buffer to give a fourteen point half log dose response and plated into 384 well black plates. The compound was incubated at room temperature with activated AKT isoform ([…] ) at the pre-determined concentration, for 45 minutes.
# (§6) 2.5 μl of ATP solution mixed with 2.5 μl of AKT substrate peptide (FAM Crosstide (R7110) Molecular Devices) were dispensed into each well and the plate centrifuged at 1000 rpm for 20 seconds to ensure homogenous mixing of reagents. The reaction mix was incubated in the dark for one hour at room temperature.
# (§7) The kinase reaction was stopped by the addition of Progressive Binding Solution and the mixture allowed to equilibrate for one hour in the dark, at room temperature.
# (§8) The fluorescent polarisation generated in each well was determined using a […] Synergy 4 Hybrid plate reader. In brief, each reaction solution was excited at 485 nm with the emission measured at 528 nm in both the parallel and perpendicular pathway.
# (§9) The polarisation value generated in each well was calculated by Gen5 software (Biotek) and the % inhibition of kinase activity compared to vehicle control was calculated via GraphPad Prism. IC50 values for each compound were calculated by non-linear regression analysis using Prism software.
# (§10) All plates were internally controlled by two methods. Firstly, by calculating the signal:noise ratio; based on kinase polarisation without inhibitor and polarisation generated by complete reaction buffer in the absence of activated kinase. Secondly by determining IC50 values generated by known inhibitors of the AKT isoforms.
# [2] = molecular target: T2, AKT2 (Homo sapiens, UniProt P31751); assay: AKT Kinase Assay (IMAP fluorescent polarisation) vs AKT2
# T2 construct: purchased SignalChem
# T2 sequence (P31751 whole entry): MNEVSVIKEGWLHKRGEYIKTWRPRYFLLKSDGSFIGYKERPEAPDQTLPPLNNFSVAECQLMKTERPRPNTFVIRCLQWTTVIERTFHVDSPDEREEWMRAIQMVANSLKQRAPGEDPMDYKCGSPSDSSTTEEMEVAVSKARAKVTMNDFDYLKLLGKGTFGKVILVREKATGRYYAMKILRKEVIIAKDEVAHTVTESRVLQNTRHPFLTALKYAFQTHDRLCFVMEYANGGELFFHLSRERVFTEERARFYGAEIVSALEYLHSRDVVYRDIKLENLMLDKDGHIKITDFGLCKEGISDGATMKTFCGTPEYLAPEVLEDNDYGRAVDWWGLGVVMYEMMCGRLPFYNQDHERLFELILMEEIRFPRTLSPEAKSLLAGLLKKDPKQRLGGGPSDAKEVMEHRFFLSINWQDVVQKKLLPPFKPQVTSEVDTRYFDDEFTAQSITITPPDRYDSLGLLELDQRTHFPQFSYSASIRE
# Experimental: as §1, §2, §3, §4, §5, §6, §7, §8, §9, §10
# [3] = molecular target: T3, AKT3 (Homo sapiens, UniProt Q9Y243); assay: AKT Kinase Assay (IMAP fluorescent polarisation) vs AKT3
# T3 construct: purchased SignalChem
# T3 sequence (Q9Y243 whole entry): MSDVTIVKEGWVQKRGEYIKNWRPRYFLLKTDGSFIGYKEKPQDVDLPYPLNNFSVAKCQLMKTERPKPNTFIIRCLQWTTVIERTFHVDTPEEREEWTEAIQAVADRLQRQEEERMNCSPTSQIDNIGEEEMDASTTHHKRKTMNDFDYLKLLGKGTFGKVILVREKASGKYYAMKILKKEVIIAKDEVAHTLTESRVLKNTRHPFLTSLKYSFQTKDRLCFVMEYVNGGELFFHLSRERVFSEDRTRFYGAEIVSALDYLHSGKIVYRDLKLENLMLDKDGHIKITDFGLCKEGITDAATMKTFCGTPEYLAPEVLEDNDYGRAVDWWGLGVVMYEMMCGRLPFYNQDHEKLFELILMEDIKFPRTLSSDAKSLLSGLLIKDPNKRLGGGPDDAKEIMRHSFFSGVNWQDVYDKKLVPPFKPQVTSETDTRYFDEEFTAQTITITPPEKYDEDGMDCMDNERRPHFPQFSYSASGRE
# Experimental: as §1, §2, §3, §4, §5, §6, §7, §8, §9, §10
# T1 sequence (P31749 whole entry): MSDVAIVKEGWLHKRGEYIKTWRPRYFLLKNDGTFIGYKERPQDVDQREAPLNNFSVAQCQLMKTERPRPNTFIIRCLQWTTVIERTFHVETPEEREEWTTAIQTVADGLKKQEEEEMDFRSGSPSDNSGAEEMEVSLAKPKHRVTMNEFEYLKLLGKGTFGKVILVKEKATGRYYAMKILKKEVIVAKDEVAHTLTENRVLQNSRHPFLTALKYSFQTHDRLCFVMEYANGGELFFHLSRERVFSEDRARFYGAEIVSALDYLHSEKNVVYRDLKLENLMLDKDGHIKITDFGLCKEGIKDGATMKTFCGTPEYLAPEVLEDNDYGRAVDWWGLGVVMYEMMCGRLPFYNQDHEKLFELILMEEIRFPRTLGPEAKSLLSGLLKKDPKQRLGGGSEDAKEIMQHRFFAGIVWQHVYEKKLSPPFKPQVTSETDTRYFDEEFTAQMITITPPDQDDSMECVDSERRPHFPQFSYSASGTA
Structure (SMILES),IC50 [1],IC50 [2],IC50 [3]
"CCc1nnc2n1-c1cc(-c3ccccc3)c(-c3ccc([C@]4(N)C[C@](C)(O)C4)cc3)nc1OC2 [Example 138, (1r,3r)-3-amino-3-(4-(1-ethyl-8-phenyl-4H-pyrido[2,3-b][1,2,4]triazolo[4,3-d][1,4]oxazin-7-yl)phenyl)-1-methylcyclobutanol]",≤ 100 nM,100 to 1000 nM,1000 to 10000 nM
"NC1(c2ccc(-c3nc4c(cc3-c3ccccc3)-c3n[nH]c(N5CCOCC5)c3CC4)cc2)CCC1 [Example 13, 1-(4-(3-morpholino-8-phenyl-4,5-dihydro-2H-pyrazolo[3,4-f]quinolin-7-yl)phenyl)cyclobutanamine]",100 to 1000 nM,100 to 1000 nM,1000 to 10000 nM
"CCN1CCc2nc(-c3ccc(C4(N)CCC4)cc3)c(-c3ccccc3)cc2C1 [Example 27, 1-(4-(6-ethyl-3-phenyl-5,6,7,8-tetrahydro-1,6-naphthyridin-2-yl)phenyl)cyclobutanamine]",1000 to 10000 nM,> 10000 nM,> 10000 nM
"CC(=O)CN1C(=O)COc2nc(-c3ccc(C4(N)CCC4)cc3)c(-c3ccccc3)cc21 [Example 36, 6-(4-(1-aminocyclobutyl)phenyl)-1-(2-oxopropyl)-7-phenyl-1H-pyrido[2,3-b][1,4]oxazin-2(3H)-one]",100 to 1000 nM,1000 to 10000 nM,1000 to 10000 nM
"C[C@]1(O)C[C@@](N)(c2ccc(-c3nc4c(cc3-c3ccccc3)N(CCF)C(=O)CO4)cc2)C1 [Example 145, 6-(4-((1r,3r)-1-amino-3-hydroxy-3-methylcyclobutyl)phenyl)-1-(2-fluoroethyl)-7-phenyl-1H-pyrido[2,3-b][1,4]oxazin-2(3H)-one]",≤ 100 nM,≤ 100 nM,100 to 1000 nM
"CN1CC(=O)Nc2cc(-c3ccccc3)c(-c3ccc(C4(N)CCC4)cc3)nc21 [Example 72, 6-(4-(1-aminocyclobutyl)phenyl)-4-methyl-7-phenyl-3,4-dihydropyrido[2,3-b]pyrazin-2(1H)-one]",100 to 1000 nM,1000 to 10000 nM,> 10000 nM
"NC1(c2ccc(-c3nc4c(cc3-c3ccccc3)N(c3cccnc3)CCO4)cc2)CCC1 [Example 91, 1-(4-(7-phenyl-1-(pyridin-3-yl)-2,3-dihydro-1H-pyrido[2,3-b][1,4]oxazin-6-yl)phenyl)cyclobutanamine]",100 to 1000 nM,≤ 100 nM,1000 to 10000 nM
"NC1(c2ccc(-c3nc4c(cc3-c3ccccc3)N(c3cccnc3)S(=O)(=O)CO4)cc2)CCC1 [Example 74, 6-(4-(1-aminocyclobutyl)phenyl)-7-phenyl-1-(pyridin-3-yl)-1H-pyrido[3,2-e][1,3,4]oxathiazine 2,2-dioxide]",1000 to 10000 nM,1000 to 10000 nM,> 10000 nM
"N#CCN1C(=O)COc2nc(-c3ccc([C@]4(N)C[C@@H](O)C4)cc3)c(-c3ccccc3)cc21 [Example 147, 2-(6-(4-((1s,3s)-1-amino-3-hydroxycyclobutyl)phenyl)-2-oxo-7-phenyl-2,3-dihydro-1H-pyrido[2,3-b][1,4]oxazin-1-yl)acetonitrile]",100 to 1000 nM,100 to 1000 nM,> 10000 nM
"NC1(c2ccc(-c3nc4c(cc3-c3ccccc3)-n3c(nnc3-c3ccncc3)CO4)cc2)CCC1 [Example 123, 1-(4-(8-phenyl-1-(pyridin-4-yl)-4H-pyrido[2,3-b][1,2,4]triazolo[4,3-d][1,4]oxazin-7-yl)phenyl)cyclobutanamine]",≤ 100 nM,1000 to 10000 nM,1000 to 10000 nM
"CS(=O)(=O)c1[nH]nc2c1CCc1nc(-c3ccc(C4(N)CCC4)cc3)c(-c3ccccc3)cc1-2 [Example 10, 1-(4-(3-(methylsulfonyl)-8-phenyl-4,5-dihydro-2H-pyrazolo[3,4-f]quinolin-7-yl)phenyl)cyclobutanamine]",100 to 1000 nM,1000 to 10000 nM,> 10000 nM
"NC1(c2ccc(-c3nc4c(cc3-c3ccccc3)C(=O)CCCC4)cc2)CCC1 [Example 20, 2-(4-(1-aminocyclobutyl)phenyl)-3-phenyl-6,7,8,9-tetrahydro-5H-cyclohepta[b]pyridin-5-one]",100 to 1000 nM,1000 to 10000 nM,> 10000 nM
"CCOC(=O)CN1C(=O)COc2nc(-c3ccc(C4(N)CCC4)cc3)c(-c3ccccc3)cc21 [Example 49, ethyl 2-(6-(4-(1-aminocyclobutyl)phenyl)-2-oxo-7-phenyl-2,3-dihydro-1H-pyrido[2,3-b][1,4]oxazin-1-yl)acetate]",100 to 1000 nM,100 to 1000 nM,100 to 1000 nM
"CCc1nnc2n1-c1cc(-c3ccccc3)c(-c3ccc(CN)cc3)nc1OC2 [Example 142, (4-(1-ethyl-8-phenyl-4H-pyrido[2,3-b][1,2,4]triazolo[4,3-d][1,4]oxazin-7-yl)phenyl)methanamine]",1000 to 10000 nM,1000 to 10000 nM,1000 to 10000 nM
"CN1C(=O)NCc2nc(-c3ccc(C4(N)CCC4)cc3)c(-c3ccccc3)cc21 [Example 108, 6-(4-(1-aminocyclobutyl)phenyl)-1-methyl-7-phenyl-3,4-dihydropyrido[3,2-d]pyrimidin-2(1H)-one]",100 to 1000 nM,100 to 1000 nM,1000 to 10000 nM
"CO/N=C1\CCCc2nc(-c3ccc(C4(N)CCC4)cc3)c(-c3ccccc3)cc21 [Example 3, 2-(4-(1-aminocyclobutyl)phenyl)-3-phenyl-7,8-dihydroquinolin-5(6H)-one O-methyl oxime]",1000 to 10000 nM,> 10000 nM,> 10000 nM
"COCCc1nnc2n1-c1cc(-c3ccccc3)c(-c3ccc(C4(N)CCC4)cc3)nc1OC2 [Example 121, 1-(4-(1-(2-methoxyethyl)-8-phenyl-4H-pyrido[2,3-b][1,2,4]triazolo[4,3-d][1,4]oxazin-7-yl)phenyl)cyclobutanamine]",100 to 1000 nM,1000 to 10000 nM,1000 to 10000 nM
"NC1(c2ccc(-c3nc4c(cc3-c3ccccc3)NC(=O)NC4)cc2)CCC1 [Example 87, 6-(4-(1-aminocyclobutyl)phenyl)-7-phenyl-3,4-dihydropyrido[3,2-d]pyrimidin-2(1H)-one]",100 to 1000 nM,1000 to 10000 nM,> 10000 nM
"CCN1C(=O)COc2nc(-c3ccc([C@]4(N)C[C@](C)(O)C4)cc3)c(-c3ccccc3)cc21 [Example 143, 6-(4-((1r,3r)-1-amino-3-hydroxy-3-methylcyclobutyl)phenyl)-1-ethyl-7-phenyl-1H-pyrido[2,3-b][1,4]oxazin-2(3H)-one]",≤ 100 nM,≤ 100 nM,100 to 1000 nM
"NC1(c2ccc(-c3nc4c(cc3-c3ccccc3)-c3ncncc3CC4)cc2)CCC1 [Example 16, 1-(4-(9-phenyl-5,6-dihydropyrido[2,3-h]quinazolin-8-yl)phenyl)-cyclobutanamine]",≤ 100 nM,100 to 1000 nM,1000 to 10000 nM
"N#CCCN1C(=O)COc2nc(-c3ccc(C4(N)CCC4)cc3)c(-c3ccccc3)cc21 [Example 62, 3-(6-(4-(1-aminocyclobutyl)phenyl)-2-oxo-7-phenyl-2,3-dihydro-1H-Pyrido[2,3-b][1,4]oxazin-1-yl)propanenitrile]",1000 to 10000 nM,100 to 1000 nM,1000 to 10000 nM
"N#CCN1C(=O)COc2nc(-c3ccc(C4(N)CCC4)cc3)c(-c3ccccc3)cc21 [Example 33, 2-(6-(4-(1-aminocyclobutyl)phenyl)-2-oxo-7-phenyl-2,3-dihydro-1H-pyrido[2,3-b][1,4]oxazin-1-yl)acetonitrile]",≤ 100 nM,≤ 100 nM,100 to 1000 nM
